In PMC9028219 (Frontiers in Nutrition, 2022):
Where two headings read alike, the source gives them in different places.

Columns and labels:
[1] = system: Sarcoma-180 (S-180) tumor; details: for Tumor growth inhibition: days 1-9, evaluated day 12; for Tumor cell count Mean ± S.E / Tumor volume Mean ± S.E / Tumor weight Mean ± S.E: days 1-9, evaluated day 12, n = 5
Description: The S-180 cells were collected from Swiss albino mice harboring 8–10 days old cells from the peritoneal cavity. On day 0, the S-180 cells (1 × 10^7 cells/ml) were injected intra-peritoneal in non-inbred female Swiss albino mice (22–25 g, 8–10 weeks old) selected for the experiment. The next day (Day 1), the animals were randomized and divided into three treatment groups, one positive control group and one vehicle control group containing 5 animals in each group. […] The fourth group was given 5-fluorouracil; positive control at a dose of 20 mg/kg bw i.p. from day 1–9, and the fifth group (control) was administered normal saline (0.2 ml i.p.) for 9 days. On day 12, the animals were sacrificed, and the fluid was collected from each mouse's peritoneal cavity to evaluate tumor growth ([43]). The tumor growth inhibition was calculated using the following formula.
Tumor Growth Inhibition(%)=(Number of tumor cells in control group-Number of tumor cells in the test group)/Number of tumor cells in the control group×100

[2] = system: FaDu; experiment: MTT anti-proliferative assay; type: cell-based; details: Homo sapiens
Description: (§1) The cell lines used for the present study were K562 (erythroid leukemia), COLO-205 (colon carcinoma), FaDu (hypopharyngeal carcinoma), MCF-7 (breast ER+ve adenocarcinoma), WRL-68 (hepatocellular carcinoma), A549 (lung carcinoma), and HEK-293 (embryonic kidney). These cell lines were purchased from the National Center for Cell Sciences (NCCS), Pune, India, except FaDu, which Dr. Sarkar endowed from CSIR-Central Drug Research Institute, Lucknow, Uttar Pradesh, India.
(§2) The MTT assay was performed following the protocol as Mosmann ([30]) determined. […] The next day, 10 μl (500 μg/ml) of MTT dye was added to each well of the plate and further incubated for 4 h. After that, the formazan crystal was dissolved in 100 μl DMSO and absorbance was measured at 570 nm. The SRB, NRU, and MTT assays were calculated using percentage cytotoxicity concerning control ([30]).

[3] = target: Cyclooxygenase-2 (COX-2) (Homo sapiens, UniProt P35354); experiment: COX-2 activity assay in cell lysate; details: A549, 100 μM
Sequence of Cyclooxygenase-2 (COX-2) (P35354 18-604): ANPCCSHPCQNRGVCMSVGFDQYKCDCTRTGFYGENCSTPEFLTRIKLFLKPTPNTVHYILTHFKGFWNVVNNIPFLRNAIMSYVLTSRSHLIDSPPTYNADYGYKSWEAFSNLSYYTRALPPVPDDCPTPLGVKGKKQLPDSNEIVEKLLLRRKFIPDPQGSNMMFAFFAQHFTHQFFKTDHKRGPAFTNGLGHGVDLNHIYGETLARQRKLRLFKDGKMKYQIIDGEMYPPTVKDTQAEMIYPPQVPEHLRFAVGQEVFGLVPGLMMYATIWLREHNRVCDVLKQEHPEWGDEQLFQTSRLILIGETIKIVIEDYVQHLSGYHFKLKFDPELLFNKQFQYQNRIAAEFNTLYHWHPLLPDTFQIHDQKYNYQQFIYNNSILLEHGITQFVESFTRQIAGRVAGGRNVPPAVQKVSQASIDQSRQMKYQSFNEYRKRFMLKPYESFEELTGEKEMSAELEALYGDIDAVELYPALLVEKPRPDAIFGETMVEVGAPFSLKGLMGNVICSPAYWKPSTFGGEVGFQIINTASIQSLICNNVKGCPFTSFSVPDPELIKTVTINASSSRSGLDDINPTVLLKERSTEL
Description: (§9) Cyclooxygenase-2 (COX-2) activity was measured as reported by Kulmaczand Lands ([33]). The reaction cocktail consists of Tris-HCl buffer (100 mM and pH 8.0), EDTA (3 μM), hematin (15 μM), and cell lysate. After incubation, arachidonic acid (AA) and N,N,N′,N′-tetra methyl-p-phenylenediamine (TMPD) was added to 96 well plates to initiate the reaction. The reaction mixture was immediately auto mixed using the Multiscan Go of Thermo Scientific spectrophotometer, and absorbance was measured at 590 nm ([33]). The enzyme inhibition was calculated concerning control. […] Approximately 40 μM of AA was mixed to initiate the reaction, and the plate was kept for 4 min at room temperature. The reaction was terminated by adding an equal ratio of reagent 1 (4.5 mM FeSo4 in HCl) and reagent 2 (3% NH4SCN). The absorbance was taken at 480 nm using a spectrophotometer ([34]). The enzyme inhibition was compared concerning control.

[4] = target: T1, Ornithine decarboxylase (ODC) (Homo sapiens, UniProt P11926); experiment: ODC activity assay in lysate of treated cells; type: cell-based; details: A549, 100 μM
T1 construct: endogenous in cells; host or cells: A549
T1 sequence (P11926 whole entry): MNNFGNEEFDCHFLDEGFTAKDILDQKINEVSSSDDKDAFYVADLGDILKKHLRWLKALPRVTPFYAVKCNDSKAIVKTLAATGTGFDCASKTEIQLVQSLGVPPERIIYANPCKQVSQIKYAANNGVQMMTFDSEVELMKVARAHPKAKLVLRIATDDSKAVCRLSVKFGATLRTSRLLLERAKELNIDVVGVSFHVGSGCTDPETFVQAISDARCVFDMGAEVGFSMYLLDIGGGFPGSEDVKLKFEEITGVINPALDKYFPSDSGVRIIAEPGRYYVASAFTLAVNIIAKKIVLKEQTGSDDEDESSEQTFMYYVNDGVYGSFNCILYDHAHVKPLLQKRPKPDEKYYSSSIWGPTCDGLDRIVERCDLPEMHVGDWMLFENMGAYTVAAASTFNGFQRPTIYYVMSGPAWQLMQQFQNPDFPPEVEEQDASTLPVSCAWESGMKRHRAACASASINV

[5] = system: HEK-293 (normal) cell line; experiment: Anti-proliferative activity (SRB, MTT, NRU assays); type: cell-based, human
Description: as §1
(§3) The SRB assay was carried out by following the method reported by Skehan et al. ([27]) with a slight modification ([28]). In 96 well plates, approximately ~2 ×10^3 cells per well were seeded. […] Approximately 20% of TCA was added in treated plates to precipitate cellular proteins, followed by washing cells with tap water and adding 10 μl SRB dye (0.4%) in each well of the plate. Then, the plate was washed with 1% acetic acid to remove the unbound dye. The bound dye was dissolved in 200 μl tris base (10 mM). The absorbance was finally measured at 515 nm using a spectrophotometer (Multiskan^TM Go SkanIt Software, version 4.0, Thermo Fisher Scientific, Waltham, MA, USA).
(§4) The NRU assay was carried out by Babich and Borenfreund ([29]) method. Similar to the SRB assay, 5 μl NRU dye was added to the treated plate. Then, cells were washed with fixative solution after 3 h of incubation; further, the bound dye was solubilized in a dissolving solution. The absorbance was measured at 540 nm ([29]).
as §2

[6] = system: COLO-205; experiment: Anti-proliferative activity (SRB, MTT, NRU assays); type: cell-based, human; details: COLO-205, higher tested concentration 100 μM
Description: as §1, §3, §4, §2

[7] = system: MCF-7; experiment: Anti-proliferative activity (SRB, MTT, NRU assays); type: cell-based, human; details: MCF-7, higher tested concentration 100 μM
Description: as §1, §3, §4, §2

[8] = system: WRL-68; experiment: Anti-proliferative activity (SRB, MTT, NRU assays); type: cell-based, human; details: WRL-68, higher tested concentration 100 μM
Description: as §1, §3, §4, §2

[9] = system: FaDu cells; experiment: ROS production (DCFH-DA); type: cell-based, human
Description: (§5) The cell cycle analysis was carried out by the protocol reported by Fatima et al. ([40]). The cell lines were fixed with 70% ethanol. Before analysis, fixed cells were washed at least two times with PBS and PI solution containing RNase A to stain the cells. The samples were run on a flow cytometer within 1 h. Treated FaDu cells were incubated with 10 μM of DCFH-DA dye for 30 min then fluorescence was measured at 485/530 nm of […]. For FACS analysis, treated cells were incubated with 10 μM of DCFH-DA dye for 30 min, and the samples were analyzed within 1 h ([41]). The protocol for the analysis of MMP was similar to that of DCFH-DA except for Rhodamine 123 dye ([41]). The experiment was also carried out as per the method reported in Annexin-V-FITC apoptosis detection kit I (BD Pharmingen^TM, Catalog No. 556547). For the assay, 1 × 10^6 cells were grown in 6 well plates and treatment was given 24 h. The next day, cells were washed with cold PBS, and the pellet was resuspended in 100 μl (1X binding) buffer and left for 15 min followed by incubation with a dual fluorescent dye (5 μl FITC and 5 μl PI) for 10 min. The cell suspension was maintained upto 500 μl from the 1X binding buffer. The stained cells were analyzed by flow cytometer within 1 h ([42]).

[10] = system: FaDu; experiment: NRU anti-proliferative assay; type: cell-based, human
Description: as §1, §4

[11] = system: Hyaluronidase (HYAL); experiment: HYAL activity assay in cell lysate; type: cell-based, human
Description: (§6) Protein was estimated by nanodrop before being used for the enzyme assays.
(§7) The HYAL assay was performed by the standard reported protocol ([35]). Approximately 10 μg of cell lysate added in enzyme diluent buffer (77 mM sodium chloride, 20 mM sodium phosphate, 0.01% albumin, and pH 7.0 at 37°C). The reaction mixture was incubated for 45 min after adding HA (substrate). The mixture was distributed in three parts, each well of the plate containing 25 μl followed by the addition of 125 μl of diluent buffer (79 mM acetic acid, 24 mM sodium acetate, 0.1% albumin bovine, and pH 3.75). The absorbance was measured at 600 nm after 10 min incubation. The graph was shown in the terms of percentage inhibition. Hemoglobin was used as a substrate to determine CATD activity ([36]). Cell lysate (10 μg) was incubated with a reaction cocktail (2.5% of hemoglobin, deionised water, 400 mM citrate buffer, and pH 2.8) for 30 min at 37°C; the reaction was terminated by adding 5% TCA. Then, 200 μl of supernatant was taken in plate after centrifuge and absorbance were measured at 280 nm.

[12] = system: FaDu cells; experiment: Cell cycle analysis (PI, flow cytometer); type: cell-based, human; details: PI staining
Description: as §5

[13] = system: HIF-1α; experiment: ELISA kit assay in FaDu cells; type: cell-based, human; details: both tested concentrations
Description: (§8) The PI3K expression was determined using a kit procured from Bioassay Technology (Catalog No. E0896Hu). The protocol measured the AKT (Catalog No. 201-12-0893) and HDAC-6 (Catalog No. 201-12-2132) as indicated in the human-specific ELISA kit from Sun Red Company, China. mTOR (Catalog No. E-EL-H1655) was quantified by a kit purchased from ELab Sciences, USA. The VEGF (Catalog No. ab100663) and HIF-1α (Catalog No. ab171577) were estimated using a kit procured from Abcam, UK.

[14] = system: mTOR; experiment: ELISA kit assay in FaDu cells; type: cell-based, human
Description: as §8

[15] = system: VEGF; experiment: ELISA kit assay in FaDu cells; type: cell-based, human; details: both tested concentrations
Description: as §8

[16] = system: AKT; experiment: ELISA kit assay in FaDu cells; type: cell-based, human
Description: as §8

[17] = system: HDAC-6; experiment: ELISA kit assay in FaDu cells; type: cell-based, human
Description: as §8

[18] = system: PI3K; experiment: ELISA kit assay in FaDu cells; type: cell-based, human
Description: as §8

[19] = system: FaDu cells; experiment: Annexin V-FITC/PI apoptosis assay; type: cell-based, human
Description: as §5

[20] = system: A549; experiment: NRU anti-proliferative assay; type: cell-based; details: Homo sapiens
Description: as §1, §4

[21] = target: T2, Cathepsin D (CATD) (Homo sapiens, UniProt P07339); experiment: CATD activity assay in cell lysate; type: cell-based
T2 construct: endogenous in cells; host or cells: FaDu, K562, A549
T2 sequence (P07339 65-412): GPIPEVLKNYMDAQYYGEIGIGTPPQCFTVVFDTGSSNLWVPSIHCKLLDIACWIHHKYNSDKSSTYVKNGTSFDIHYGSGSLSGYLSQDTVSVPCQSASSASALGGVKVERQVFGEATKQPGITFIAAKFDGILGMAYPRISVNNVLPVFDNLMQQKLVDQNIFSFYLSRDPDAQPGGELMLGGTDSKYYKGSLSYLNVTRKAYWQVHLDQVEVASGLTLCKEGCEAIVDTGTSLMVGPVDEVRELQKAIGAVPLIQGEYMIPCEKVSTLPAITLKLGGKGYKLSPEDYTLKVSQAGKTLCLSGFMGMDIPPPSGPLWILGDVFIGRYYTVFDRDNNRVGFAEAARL
Description: as §6, §7

[22] = target: Lipoxygenase-5 (LOX-5) (Homo sapiens, UniProt P09917); experiment: LOX-5 activity assay in cell lysate
Sequence of Lipoxygenase-5 (LOX-5) (P09917 whole entry): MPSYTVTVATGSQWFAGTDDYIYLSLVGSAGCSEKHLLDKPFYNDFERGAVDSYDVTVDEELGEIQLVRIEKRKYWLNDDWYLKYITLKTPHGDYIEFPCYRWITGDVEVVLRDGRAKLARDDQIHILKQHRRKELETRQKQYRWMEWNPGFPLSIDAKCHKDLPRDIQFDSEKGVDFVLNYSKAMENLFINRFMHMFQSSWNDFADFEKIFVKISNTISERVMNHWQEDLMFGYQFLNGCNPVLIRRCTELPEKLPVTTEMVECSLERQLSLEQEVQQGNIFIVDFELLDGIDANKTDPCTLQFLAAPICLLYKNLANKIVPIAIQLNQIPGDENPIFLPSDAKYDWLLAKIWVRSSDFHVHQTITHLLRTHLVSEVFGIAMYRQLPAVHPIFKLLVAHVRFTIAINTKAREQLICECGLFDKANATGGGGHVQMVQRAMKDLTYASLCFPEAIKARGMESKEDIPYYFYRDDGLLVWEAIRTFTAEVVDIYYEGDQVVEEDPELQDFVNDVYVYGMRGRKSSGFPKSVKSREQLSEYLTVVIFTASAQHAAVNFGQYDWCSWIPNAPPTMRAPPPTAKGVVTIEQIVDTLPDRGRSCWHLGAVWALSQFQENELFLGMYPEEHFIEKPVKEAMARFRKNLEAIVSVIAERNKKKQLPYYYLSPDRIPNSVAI
Description: as §9

[23] = system: K562; experiment: SRB anti-proliferative assay; type: cell-based; details: Homo sapiens, K562, 72 h
Description: as §1, §3

[24] = system: FaDu; experiment: SRB anti-proliferative assay; type: cell-based; details: Homo sapiens, 72 h
Description: as §1, §3

[25] = target: T3, Dihydrofolate reductase (DHFR) (Homo sapiens, UniProt P00374); experiment: DHFR activity assay in lysate of treated cells; details: cell-based test system, higher tested concentration 100 μM
T3 construct: endogenous in cells; host or cells: FaDu, K562, A549
T3 sequence (P00374 whole entry): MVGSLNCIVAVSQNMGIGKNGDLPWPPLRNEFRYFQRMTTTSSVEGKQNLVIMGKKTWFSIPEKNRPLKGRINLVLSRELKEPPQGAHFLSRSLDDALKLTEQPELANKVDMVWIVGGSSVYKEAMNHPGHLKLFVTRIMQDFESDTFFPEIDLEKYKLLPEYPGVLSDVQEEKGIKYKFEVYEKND
Description: as §6
In one set, ~10 μg of cell lysate was incubated with a reaction cocktail (2.3 mM DHFA, 0.11 mM β-NADPH in 50 mM potassium phosphate buffer, and pH 6.5), while another set was incubated in the reaction cocktail containing 0.1% bovine serum albumin (BSA) solution. The reaction mixture was mixed, and the kinetic study was performed at 340 nm for 5 min. The results were calculated using percentage inhibition concerning control ([31]). The ODC activity was determined by the modified method reported by Luqman et al. ([32]). Approximately 10 μg of cell lysate was added to the reaction cocktail (2.5 mM β-mercaptoethanol, 1.5 mM EDTA, 75 nM pyridoxal-phosphate, 3 mM L-ornithine hydrochloride in 150 mM potassium phosphate buffer, and pH 7.1). Approximately, 400 μl of 1 M perchloric acid was used to terminate the reaction, and NaOH (4N) was added to the supernatant. Further, 1-pentanol was added after centrifugation. Then, the upper organic phase was transferred to a microcentrifuge tube with 200 μl sodium borate, 200 μl TNBS, and 400 μl DMSO. Further, it was centrifuged, and 60 μl of supernatant was taken in plate, and absorbance was measured at 412 nm. The graph was plotted in the terms of percentage inhibition.

[26] = system: FaDu cells; experiment: Mitochondrial membrane potential (Rhodamine 123); type: cell-based, human
Description: as §5

[27] = system: resistant species; details: against the resistant species; ref [8], [9]; cited from earlier work
[28] = higher concentration (4 x IC50), 24 h

## O=c1[nH]cc(F)c(=O)[nH]1 [5 FU, 5-fluorouracil, reference compound]
[1]; 20 mg/kg bw i.p.
  Tumor growth inhibition: 93.75%
  Tumor cell count Mean ± S.E: 5 ± 0.28^*** 1 × 10^7
  Tumor volume Mean ± S.E: 0.16 ± 0.01 mL
  Tumor weight Mean ± S.E: 0.16 ± 0.01 g

## Cc1ccc(C(C)C)cc1O [carvacrol, 5-isopropyl-2-methyl phenol]
[2]
  IC50: 9.61 ± 0.05 µM
[3]
  reduction of COX-2 activity: 13.33%
[4]
  reduction of ODC activity: 35.68%
[5]
  cell growth inhibition: approximately 25%
[6]
  reduction of proliferation: up to 24%
[7]
  reduction of proliferation: up to 24%
[8]
  reduction of proliferation: up to 24%
[1]; 25 mg/kg bw i.p.
  Tumor growth inhibition: 28.12%
  Tumor cell count Mean ± S.E: 57.5 ± 8.72 1 × 10^7
  Tumor volume Mean ± S.E: 3.5 ± 0.54 mL
  Tumor weight Mean ± S.E: 3.36 ± 0.60 g
[1]; 50 mg/kg bw i.p.
  Tumor growth inhibition: 55.94%
  Tumor cell count Mean ± S.E: 35.25 ± 4.68^** 1 × 10^7
  Tumor volume Mean ± S.E: 1.57 ± 0.25 mL
  Tumor weight Mean ± S.E: 1.39 ± 0.33 g
[1]; 75 mg/kg bw i.p.
  Tumor growth inhibition: 72.62%
  Tumor volume Mean ± S.E: 1.16 ± 0.34 mL
  Tumor weight Mean ± S.E: 1.10 ± 0.41 g
[1]; 75, 50 and 25 mg/kg bw i.p.
  effect on mice bw: no adverse effect
[1]; during the experimental period
  mortality: no mortality was noticed
[9]
  ROS production: increases the ROS production in FaDu cell line in a dose-dependent manner; however, the effect was non-significant
[10]
  growth inhibition: 35.32 ± 2.85%
[11]; A549, 100 μM
  reduction of HYAL enzyme action: 39.15%
[11]; FaDu
  IC50: 88.1 ± 10.4 µM
[11]; K562
  IC50: 62 ± 8.4 µM
[12]
  cell cycle phase arrest: arrests the G2/M phase of FaDu cells in a dose-dependent manner
  sub-diploid population: raises the sub-diploid population number
[13]
  effect on HIF-1α activity: the effect was non-significant
[14]
  effect on mTOR activity: reduces the activity
[15]
  effect on VEGF activity: the effect was non-significant
[16]
  effect on AKT activity: suppresses the activity of the PI3K/AKT at the higher tested concentration
[17]
  effect on HDAC-6 activity: inhibits HDAC-6 activity in a dose-dependent manner
[18]
  effect on PI3K activity: suppresses the activity of the PI3K/AKT at the higher tested concentration
[19]; Annexin V-FITC and PI
  significance of effect on apoptosis and necrosis: non-significant
[19]; [28]
  early apoptosis (A+/P-): 0.1%
  late apoptosis (A+/P+): 1.4%
  necrosis (A-/P+): 3.4%
[20]
  IC50: 80.9 ± 8.28 µM
[21]; A549
  suppression of CATD activity: 2 ± 0.52%
[21]; FaDu
  suppression of CATD activity: 18.48 ± 0.33%
[21]; K562
  suppression of CATD activity: 5 ± 0.94%
[22]; A549
  suppression of LOX-5 activity: < 50%
[22]; K562
  suppression of LOX-5 activity: < 50%
[23]
  IC50: 81.3 ± 11.8 µM
[24]
  IC50: 42 ± 11.4 µM
[25]
  suppression of DHFR enzyme action: up to 7%
[26]
  mitochondrial membrane potential: diminishes the membrane potential of the FaDu cell line at the tested concentrations
[27]
  minimum inhibitory concentration (MIC): 0.015–0.03 % v/v
